From patent US5594009A, “Fused pyrrolocarbazoles” (priority 1995, dated 1997)

System: choline acetyltransferase (ChAT) activity in dissociated rat embryonic spinal cord culture
Assay: Spinal Cord ChAT Activity Assay; note: test concentration or dose not given here
Format: cell-based
Details: ChAT measured after 48 hours

Row | Compound | Spinal Cord ChAT Activity, % of Control, untreated cultures
1 | O=C1NC(=O)c2c1c1c(c3[nH]c4ccccc4c23)Cc2ccc(Br)cc2-1 [Compound Ib-2] | 153 % of Control
2 | Cc1cccc2c1[nH]c1c3c(c4c(c12)C(=O)NC4=O)-c1ccccc1C3 [Compound Ib-1, 1-Methyl-12H, 13H-indeno[2,3-a]pyrrolo[3,4-c]carbazole-6H-5,7(5H, 7H)-dione] | 138 % of Control
3 | Cn1c2ccccc2c2c3c(c4c(c21)Cc1ccccc1-4)C(=O)NC3=O [Compound I-4, 13-Methyl-6H, 12H-indeno[2,3-a]pyrrolo[3,4-c]carbazole-5,7(5H, 7H)-dione] | 124 % of Control
4 | O=C1NCc2c1c1c3ccccc3sc1c1[nH]c3ccccc3c21 [Compound I-43, 6H, 7H, 12H-Benzo[b]thieno[2,3-a]pyrrolo[3,4-c]carbazole-7(7H)one] | 138 % of Control
5 | O=C1NCc2c1c1c(c3[nH]c4ccc(-c5ccccc5)cc4c23)Cc2ccccc2-1 [Compound I-27, 3-Phenyl-5H,6H,12H,13H-indeno[2,3-a]pyrrolo[3,4-c]carbazole-7(7H)one] | 120 % of Control
6 | O=C1NC(=O)c2c1c1c(c3[nH]c4ccccc4c23)CCc2cc(F)ccc2-1 [Compound Ia-4, 10-Fluoro-12,13-dihydro-6H, 14H-naphthyl[3,4-a]pyrrolo[3,4-c]carbazole-5,7(5H, 7H)dione] | < 120 % of Control
7 | COc1ccc2[nH]c3c4c(c5c(c3c2c1)CNC5=O)-c1ccccc1C4 [Compound I-13, 3-Methoxy-5H, 6H, 12H, 13H-Indeno[2,3-a]pyrrolo[3,4-c]carbazole-7(7H)one] | 217 % of Control
8 | O=C1NCc2c1c1c(c3[nH]c4ccc(Br)cc4c23)CCc2ccccc2-1 [Compound I-19, 3-Bromo-12,13-Dihydro-5H, 6H, 14H-naphthyl[3,4-a]pyrrolo[3,4-c]carbazole-7(7H)one] | 203 % of Control
9 | O=C1NC(=O)c2c1c1c(c3[nH]c4ccccc4c23)CCc2cc(CCc3ccccn3)ccc2-1 [Compound Ia-7] | < 120 % of Control
10 | O=C1NCc2c1c1c3ccccc3[nH]c1c1sc3ccccc3c21 [Compound I-42, 6H, 7H, 12H-Benzo[b]thieno[2,3-a]pyrrolo[3,4-c]carbazole-5(5H)one] | 177 % of Control
11 | O=C1NC(=O)c2c1c1c(c3[nH]c4ccccc4c23)CCc2cc(Br)ccc2-1 [Compound Ia-5, 10-Bromo-12,13-dihydro-6H, 14H-naphthyl[3,4,-a]pyrrolo[3,4-c]carbazole-5,7(5H, 7H)dione] | 132 % of Control
12 | 2-Chloro-6H, 7H, 12H, 13H-indeno[2,3-a]pyrrolo[3,4-c]carbazole-5(5H)one and 2-chloro-5H, 6H, 12H, 13H-indeno[2,3-a]pyrrolo[3,4-c]carbazole-7(7H)one [Compound Ia-2] | 161 % of Control
13 | N#CC=Cc1ccc2[nH]c3c4c(c5c(c3c2c1)CNC5=O)-c1ccccc1C4 [Compound I-35, 3-(2-Cyanoethenyl)-5H,6H,12H,13H-indeno[2,3-a]pyrrolo[3,4-c]carbazole-7(7H)one] | 121 % of Control
14 | O=C1NCc2c3c(c4[nH]c5ccc(C=Cc6ccccn6)cc5c4c21)Cc1ccccc1-3 [Compound I-41, 3-(2-(2-Pyridylethenyl))-6H,7H,12H,13H-indeno[2,3-a]pyrrolo[3,4-c]carbazole-5(5H)-one] | 122 % of Control
15 | O=C1NC(O)c2c1c1c3ccccc3ccc1c1[nH]c3ccccc3c21 (stereo not drawn) [Compound I-38, 5-Hydroxy-12,13-dihydro-6H, 14H-naphthyl[3,4-a]pyrrolo[3,4-c]carbazole-7(7H)one] | 208 % of Control
16 | O=C1NC(=O)c2c1c1c(c3[nH]c4ccccc4c23)Cc2cc(Br)ccc2-1 [Compound Ia-3, 10-bromo-6H, 12H, 13H-indeno[2,3-a]pyrrolo[3,4-c]carbazole-5,7(5H, 7H)dione] | 138 % of Control
17 | 3-Fluoro6H, 7H, 12H, 13H-indeno[2,3-a]pyrrolo[3,4-c]carbazole-5(5H)one and 3-fluoro-5H, 6H, 12H, 13H-indeno[2,3-a]pyrrolo[3,4-c]carbazole-7((7H)one [Compound I-8] | 200 % of Control
18 | O=C1NCc2c1c1c(c3[nH]c4ccc(C=CN5C(=O)c6ccccc6C5=O)cc4c23)Cc2ccccc2-1 [Compound I-39, 3-(2-(2-Phthalimido)ethenyl)-5H,6H,12H,13H-indeno[2,3-a]pyrrolo[3,4-c]carbazole-7(7H)-one] | 268 % of Control
19 | CCCCCc1ccc2[nH]c3c4c(c5c(c3c2c1)C(=O)NC5=O)-c1ccccc1C4 [Compound I-37, 3-Pentyl-6H,12H,13H-indeno[2,3-a]pyrrolo[3,4-c]carbazole-5,7(5H,7H)dione] | < 120 % of Control
20 | O=C1NC(=O)c2c1c1c(c3[nH]c4ccccc4c23)CCc2cc(C=Cc3ccccn3)ccc2-1 [Compound Ia-6] | 139 % of Control
21 | mixture of 13-Methyl-6H, 7H, 12H-indeno[2,3-a]pyrrolo[3,4-c]carbazole-5(5H)one and 13-methyl-5H, 6H, 12H-indeno[2,3-a]pyrrolo[3,4,-c]carbazole-7(7H)one [Compound I-5] | 137 % of Control
22 | O=C1NC(=O)c2c1c1c(c3[nH]c4ccc(Cl)cc4c23)Cc2ccccc2-1 [Compound I-10, 3-Chloro-6H , 12H, 13H-indeno[2,3-a]pyrrolo[3,4-c]carbazole-5,7(5H, 7H)-dione] | 189 % of Control
23 | O=C1NCc2c1c1c(c3[nH]c4ccc(I)cc4c23)Cc2ccccc2-1 [Compound I-40, 3-Iodo-5H, 6H, 12H, 13H-indeno[2,3-a]pyrrolo[3,4-c]carbazole-7(7H)-one] | 150 % of Control
24 | O=C1NCc2c3c(c4[nH]c5ccc(Br)cc5c4c21)CCc1ccccc1-3 [Compound I-18, 3-Bromo-12,13-dihydro-6H, 7H, 14H-naphthyl[3,4-a]pyrrolo[3,4-c]carbazole-5(5H)one] | 133 % of Control
25 | O=C1NCc2c1c1c(c3[nH]c4ccc(C=Cc5ccncc5)cc4c23)Cc2ccccc2-1 [Compound I-33, 3-(2-(4-Pyridyl)ethenyl)-5H,6H,12H,13H-indeno[2,3-a]pyrrolo[3,4-c]carbazole-7(7H)-one] | 144 % of Control
26 | CCOC(=O)C=Cc1ccc2[nH]c3c4c(c5c(c3c2c1)CNC5=O)-c1ccccc1C4 [Compound I-25, 3-(3-Ethyl propenoate)-5H,6H,12H,13H-indeno[2,3-a]pyrrolo[3,4-c]carbazole-7(7H)one] | 168 % of Control
27 | O=c1[nH]c(=O)c2c1c1c3ccccc3[nH]c1c1c(=O)c3ccccc3c12 [Compound I-28, 12-Oxo-6H,13H-indeno[2,3-a]pyrrolo[3,4-c]carbazole-5,7(5H,7H)dione] | < 120 % of Control
